For 16 compounds, GI50 and IC50 results are on record in US20230416232A1, “PYRIMIDINE COMPOUNDS, COMPOSITIONS, AND MEDICINAL APPLICATIONS THEREOF” (Blueprint Medicines Corporation, priority 2020, published 2023).

Assay type in all cases: cell-based
Test [1] addresses EGFR(D770_N771insSVD) expressing Ba/F3 stable cell line (Homo sapiens, UniProt P00533, DUP768-770, cells depend on it). Description: Cellular proliferation (Alamar Blue) assay, EGFR(D770_N771insSVD) Ba/F3. To be noted: 72 hr, read-out: D770 IC50. As for the experimental part:
(§1) Cell line details: • 1. EGFR(D770_N771insSVD) expressing Ba/F3 stable cell line • 2. EGFR (A767_dupASV) expressing Ba/F3 stable cell line • 3. A431 cells • 4. EGFR (H773insNPH) expressing Ba/F3 stable cell line • 5. HER2 (A775_G776insYVMA) expressing Ba/F3 stable cell line
(§2) • 1. Seed cells at 5000 for A431 and 15,000 cells for Ba/F3 in 100 μL/well in complete media (for A431: DMEM with 10% FBS and for Ba/F3 cells: RPMI with 10% FBS) in 96-well tissue culture plate. Leave outer wells without cells for background measurements. Incubate at 37 degree Celsius in 5% CO2 humidified incubator for 16-18 hours. • 2. Add 0.025 ml of 5X concentration compound dilution or DMSO control. Final compound concentration range is 10-0.0005 μM prepared in 3-fold serial dilutions. Incubate for 72 hr at 37 degree Celsius in 5% CO2 humidified incubator. • 3. Add 0.0125 ml Alamar Blue™ reagent to each well with multi-channel pipette and tap gently on each side of the plate to mix. Incubate for 3 hours at 37 degree Celsius in 5% CO2 humidified incubator. • 4. […] Data analysis was performed using XLfit 5.5.0.5.
On the technique in general: Resazurin is reduced to fluorescent resorufin, in cell work by metabolically active cells.

Test [2] has as its target EGFR (A767_dupASV) expressing Ba/F3 stable cell line (Homo sapiens, UniProt P00533, DUP767-769, cells depend on it). Description: Cellular proliferation (Alamar Blue) assay, EGFR (A767_dupASV) Ba/F3. Conditions: 72 hr, read-out: A767 IC50. As to the method:
as §1, §2

Test [3] concerns A431 cells. Description: Cellular proliferation (Alamar Blue) assay, A431 cells. To be noted: Homo sapiens, A-431, 72 h, A431 cells; 72 hr; Alamar Blue; read-out: A431 IC50. As for the experimental part: as §2
Test [4] addresses HER2 (A775_G776insYVMA) expressing Ba/F3 stable cell line (Homo sapiens, UniProt P04626, DUP772-775, cells depend on it). In words: Cellular proliferation (Alamar Blue) assay, HER2 (A775_G776insYVMA) Ba/F3. Conditions: HER2 (A775_G776insYVMA) Ba/F3 cells; 72 hr; Alamar Blue; read-out: YVMA IC50. As to the method:
as §1, §2

Where only a bound is given, the exact number is not on record here.

Sequence of HER2 (A775_G776insYVMA) expressing Ba/F3 stable cell line (P04626 with tags, fused parts or gaps DUP772-775): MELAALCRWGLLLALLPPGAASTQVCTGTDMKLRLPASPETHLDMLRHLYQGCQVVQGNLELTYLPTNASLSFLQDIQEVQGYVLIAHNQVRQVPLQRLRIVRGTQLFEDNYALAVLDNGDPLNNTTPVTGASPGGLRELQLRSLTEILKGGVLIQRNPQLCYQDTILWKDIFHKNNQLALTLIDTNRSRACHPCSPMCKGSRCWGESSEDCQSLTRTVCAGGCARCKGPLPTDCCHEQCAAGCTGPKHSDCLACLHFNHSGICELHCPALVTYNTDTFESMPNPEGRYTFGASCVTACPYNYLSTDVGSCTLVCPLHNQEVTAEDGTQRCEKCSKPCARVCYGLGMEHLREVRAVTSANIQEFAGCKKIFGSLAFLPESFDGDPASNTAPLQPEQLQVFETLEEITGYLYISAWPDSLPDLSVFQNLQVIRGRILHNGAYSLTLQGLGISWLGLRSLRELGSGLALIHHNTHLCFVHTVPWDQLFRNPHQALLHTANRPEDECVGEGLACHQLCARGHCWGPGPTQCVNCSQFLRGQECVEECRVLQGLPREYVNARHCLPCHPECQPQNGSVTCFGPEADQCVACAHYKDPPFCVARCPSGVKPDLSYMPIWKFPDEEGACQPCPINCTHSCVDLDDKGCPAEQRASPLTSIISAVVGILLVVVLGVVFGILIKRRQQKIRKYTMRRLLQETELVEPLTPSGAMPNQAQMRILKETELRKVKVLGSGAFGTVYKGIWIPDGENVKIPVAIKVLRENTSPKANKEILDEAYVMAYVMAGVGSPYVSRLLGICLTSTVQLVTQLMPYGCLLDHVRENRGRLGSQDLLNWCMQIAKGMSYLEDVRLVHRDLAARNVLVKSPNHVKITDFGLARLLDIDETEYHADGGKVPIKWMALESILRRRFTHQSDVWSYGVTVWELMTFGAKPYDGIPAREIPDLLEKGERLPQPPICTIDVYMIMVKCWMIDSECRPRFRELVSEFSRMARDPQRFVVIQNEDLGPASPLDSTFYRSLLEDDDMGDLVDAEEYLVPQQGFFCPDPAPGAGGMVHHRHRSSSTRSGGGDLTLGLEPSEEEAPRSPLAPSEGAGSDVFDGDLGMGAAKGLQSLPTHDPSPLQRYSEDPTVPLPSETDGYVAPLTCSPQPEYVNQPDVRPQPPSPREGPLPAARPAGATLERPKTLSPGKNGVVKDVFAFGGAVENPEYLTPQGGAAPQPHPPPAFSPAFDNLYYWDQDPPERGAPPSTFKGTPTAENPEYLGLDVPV
Sequence of EGFR(D770_N771insSVD) expressing Ba/F3 stable cell line (P00533 with tags, fused parts or gaps DUP768-770): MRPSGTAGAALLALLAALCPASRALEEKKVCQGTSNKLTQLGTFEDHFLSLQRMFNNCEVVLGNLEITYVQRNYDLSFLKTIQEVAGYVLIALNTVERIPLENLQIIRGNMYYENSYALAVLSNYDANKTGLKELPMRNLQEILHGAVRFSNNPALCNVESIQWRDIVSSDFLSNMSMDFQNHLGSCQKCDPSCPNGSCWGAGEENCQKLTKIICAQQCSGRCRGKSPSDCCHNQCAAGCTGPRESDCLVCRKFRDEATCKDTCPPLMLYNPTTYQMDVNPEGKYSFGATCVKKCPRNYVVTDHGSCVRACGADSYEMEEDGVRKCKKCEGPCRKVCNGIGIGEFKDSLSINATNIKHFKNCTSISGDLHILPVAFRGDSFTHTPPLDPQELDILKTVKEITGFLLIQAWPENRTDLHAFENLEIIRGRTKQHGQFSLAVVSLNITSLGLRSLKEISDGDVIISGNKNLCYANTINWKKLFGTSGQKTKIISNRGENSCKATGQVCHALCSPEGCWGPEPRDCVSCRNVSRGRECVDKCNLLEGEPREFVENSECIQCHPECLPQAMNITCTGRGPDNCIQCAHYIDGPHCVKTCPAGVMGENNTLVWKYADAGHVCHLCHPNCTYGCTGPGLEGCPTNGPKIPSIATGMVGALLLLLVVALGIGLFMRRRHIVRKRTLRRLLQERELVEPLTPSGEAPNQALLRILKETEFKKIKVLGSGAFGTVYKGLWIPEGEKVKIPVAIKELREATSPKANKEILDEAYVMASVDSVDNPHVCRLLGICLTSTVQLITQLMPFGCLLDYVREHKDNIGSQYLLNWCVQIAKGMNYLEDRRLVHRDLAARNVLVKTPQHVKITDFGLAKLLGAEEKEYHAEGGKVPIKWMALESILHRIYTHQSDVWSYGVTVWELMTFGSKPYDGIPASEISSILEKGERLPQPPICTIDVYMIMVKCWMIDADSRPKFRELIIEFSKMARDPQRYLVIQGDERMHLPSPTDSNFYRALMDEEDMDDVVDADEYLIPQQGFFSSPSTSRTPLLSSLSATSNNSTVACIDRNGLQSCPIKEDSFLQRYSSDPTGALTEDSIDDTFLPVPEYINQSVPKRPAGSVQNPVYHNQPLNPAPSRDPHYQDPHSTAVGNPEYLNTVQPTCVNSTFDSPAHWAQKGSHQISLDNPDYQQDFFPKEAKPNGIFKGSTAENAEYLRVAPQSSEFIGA
Sequence of EGFR (A767_dupASV) expressing Ba/F3 stable cell line (P00533 with tags, fused parts or gaps DUP767-769): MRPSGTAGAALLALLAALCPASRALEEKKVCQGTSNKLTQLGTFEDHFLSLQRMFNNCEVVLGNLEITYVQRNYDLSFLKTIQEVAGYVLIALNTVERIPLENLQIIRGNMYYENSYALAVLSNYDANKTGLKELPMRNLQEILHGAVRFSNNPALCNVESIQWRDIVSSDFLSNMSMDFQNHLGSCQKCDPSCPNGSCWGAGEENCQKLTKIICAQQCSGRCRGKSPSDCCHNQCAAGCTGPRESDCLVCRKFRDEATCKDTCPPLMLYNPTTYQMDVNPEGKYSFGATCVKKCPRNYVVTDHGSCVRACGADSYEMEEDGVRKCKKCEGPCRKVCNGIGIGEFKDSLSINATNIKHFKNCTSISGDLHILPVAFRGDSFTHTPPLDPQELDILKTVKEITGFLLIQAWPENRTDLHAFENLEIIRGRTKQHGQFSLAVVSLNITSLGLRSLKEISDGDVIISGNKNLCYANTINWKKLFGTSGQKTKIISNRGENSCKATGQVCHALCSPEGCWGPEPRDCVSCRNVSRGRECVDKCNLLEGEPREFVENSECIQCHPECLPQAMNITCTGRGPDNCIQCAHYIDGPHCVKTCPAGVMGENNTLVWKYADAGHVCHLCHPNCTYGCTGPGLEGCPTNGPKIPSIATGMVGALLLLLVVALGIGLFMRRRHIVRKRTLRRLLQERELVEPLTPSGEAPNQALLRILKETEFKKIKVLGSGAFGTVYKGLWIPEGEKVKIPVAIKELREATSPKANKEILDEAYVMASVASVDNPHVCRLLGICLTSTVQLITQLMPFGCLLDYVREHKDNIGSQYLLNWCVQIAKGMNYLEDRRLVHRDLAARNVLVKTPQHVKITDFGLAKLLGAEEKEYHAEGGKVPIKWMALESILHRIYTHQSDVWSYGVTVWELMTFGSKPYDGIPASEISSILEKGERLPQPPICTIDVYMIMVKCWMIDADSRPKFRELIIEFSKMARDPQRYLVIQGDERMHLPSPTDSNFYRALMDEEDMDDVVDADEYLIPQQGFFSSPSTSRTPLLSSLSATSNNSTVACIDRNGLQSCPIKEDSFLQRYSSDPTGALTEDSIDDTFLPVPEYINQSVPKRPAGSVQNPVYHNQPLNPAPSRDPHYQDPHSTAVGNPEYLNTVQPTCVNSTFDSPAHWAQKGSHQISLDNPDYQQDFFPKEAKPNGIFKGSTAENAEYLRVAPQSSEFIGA

On to `C=CC(=O)Nc1ccc(F)c(Nc2nc(Nc3cnn(C)c3)ncc2-c2ccc(F)c(OC)c2)c1` [Compound 4, N-(4-fluoro-3-((5-(4-fluoro-3-methoxyphenyl)-2-((1-methyl-1H-pyrazol-4-yl)amino)pyrimidin-4-yl)amino)phenyl)acrylamide], for which the GI50 in test [1] was found to be 295 nM; in test [2], 293 nM; in test [4], 262 nM. The IC50 (as a rule, the midpoint of a concentration-inhibition curve) in test [3] is more than 10000 nM.

As to `C=CC(=O)Nc1ccc(F)c(Nc2nc(Nc3cnn(C)c3)ncc2-c2cc(OC)ccc2Cl)c1` [Compound 8, N-(3-((5-(2-chloro-5-methoxyphenyl)-2-((1-methyl-1H-pyrazol-4-yl)amino)pyrimidin-4-yl)amino)-4-fluorophenyl)acrylamide], the values for the GI50 in test [1], in test [2] and in test [4] were 1590 nM, 749 nM and 644 nM, respectively. Also, in test [3], the IC50 was more than 10000 nM.

As for `C=CC(=O)Nc1ccc(F)c(Nc2nc(Nc3cnn(C)c3)ncc2-c2cc(F)ccc2OC)c1` [Compound 9, N-(4-fluoro-3-((5-(5-fluoro-2-methoxyphenyl)-2-((1-methyl-1H-pyrazol-4-yl)amino)pyrimidin-4-yl)amino)phenyl)acrylamide], the GI50 was determined as 930 nM in test [1], 721 nM in test [2] and 838 nM in test [4]. Besides, the IC50 in test [3] was more than 10000 nM.

As for `C=CC(=O)Nc1ccc(F)c(Nc2nc(Nc3cnn(C)c3)ncc2-c2ccc(OC)c(C(F)(F)F)c2)c1` [Compound 22, N-(4-fluoro-3-((5-(4-methoxy-3-(trifluoromethyl)phenyl)-2-((1-methyl-1H-pyrazol-4-yl)amino)pyrimidin-4-yl)amino)phenyl)acrylamide], the results for the GI50 in test [1], in test [2] and in test [4] were 329 nM, 428 nM and 890 nM, respectively. Moreover, the IC50 in test [3] is more than 10000 nM.

As to `C=CC(=O)Nc1ccc(F)c(Nc2nc(Nc3cnn(C)c3)ncc2-c2cc(C(F)(F)F)ccc2F)c1` [Compound 24, N-(4-fluoro-3-((5-(2-fluoro-5-(trifluoromethyl)phenyl)-2-((1-methyl-1H-pyrazol-4-yl)amino)pyrimidin-4-yl)amino)phenyl)acrylamide], the GI50 in test [1] came to 300 nM; in test [2], 321 nM; in test [4] it was 588 nM. The IC50 in test [3] stood at 9420 nM.

On to `C=CC(=O)Nc1ccc(F)c(Nc2nc(Nc3cnn(C)c3)ncc2-c2cnc(F)c(F)c2)c1` [Compound 29, N-(3-((5-(5,6-difluoropyridin-3-yl)-2-((1-methyl-1H-pyrazol-4-yl)amino)pyrimidin-4-yl)amino)-4-fluorophenyl)acrylamide], for which the GI50 in test [1] was determined as 8 nM; in test [2] it was 7 nM; in test [4], 21 nM. Also, in test [3], the IC50 stood at 20 nM.

With `C=CC(=O)Nc1ccc(F)c(Nc2nc(Nc3cnn(C)c3)ncc2-c2cnc(Cl)c(C(F)(F)F)c2)c1` [Compound 44, N-(3-((5-(6-chloro-5-(trifluoromethyl)pyridin-3-yl)-2-((1-methyl-1H-pyrazol-4-yl)amino)pyrimidin-4-yl)amino)-4-fluorophenyl)acrylamidet], the GI50 was 24 nM in test [1], 15 nM in test [2] and 36 nM in test [4]. The IC50 in test [3] is 52 nM.

For `C=CC(=O)Nc1ccc(F)c(Nc2nc(Nc3cnn(C)c3)ncc2-c2c(F)cccc2OC)c1` [Compound 63, N-(4-fluoro-3-((5-(2-fluoro-6-methoxyphenyl)-2-((1-methyl-1H-pyrazol-4-yl)amino)pyrimidin-4-yl)amino)phenyl)acrylamide], the GI50 in test [1] worked out at 3270 nM; in test [2] it was 3090 nM; in test [4], 884 nM. In test [3], the IC50 was more than 10000 nM.

As to `C=CC(=O)Nc1ccc(F)c(Nc2nc(Nc3cnn(C)c3)ncc2-c2ccc(N3CCC3)c(F)c2)c1` [Compound 80, N-(3-((5-(4-(azetidin-1-yl)-3-fluorophenyl)-2-((1-methyl-1H-pyrazol-4-yl)amino)pyrimidin-4-yl)amino)-4-fluorophenyl)acrylamide], the GI50 in test [1] worked out at 95 nM; in test [2], 43 nM; in test [4] it was 171 nM. Moreover, the IC50 in test [3] turned out to be 54 nM.

In the case of `C=CC(=O)Nc1ccc(F)c(Nc2nc(Nc3cnn(C)c3)ncc2-c2ccc(N3CCN(C)CC3)c(F)c2)c1` [Compound 81, N-(4-fluoro-3-((5-(3-fluoro-4-(4-methylpiperazin-1-yl)phenyl)-2-((1-methyl-1H-pyrazol-4-yl)amino)pyrimidin-4-yl)amino)phenyl)acrylamide], the GI50 turned out to be 906 nM in test [1] and 343 nM in test [2]. Besides, in test [3], the IC50 turned out to be 3010 nM.

Turning to `C=CC(=O)Nc1ccc(F)c(Nc2nc(Nc3cnn(C)c3)ncc2-c2ccc(N3CC(N(C)C)C3)c(F)c2)c1` [Compound 83, N-(3-((5-(4-(3-(dimethylamino)azetidin-1-yl)-3-fluorophenyl)-2-((1-methyl-1H-pyrazol-4-yl)amino)pyrimidin-4-yl)amino)-4-fluorophenyl)acrylamide], the values for the GI50 in test [1] and in test [2] were 1010 nM and 376 nM, respectively. Further, in test [3], the IC50 was found to be 1060 nM.

Take `C=CC(=O)Nc1ccc(F)c(Nc2nc(Nc3cnn(C)c3)ncc2-c2ccc(N(C)CCN(C)C)c(F)c2)c1` [Compound 86, N-(3-((5-(4-((2-(dimethylamino)ethyl)(methyl)amino)-3-fluorophenyl)-2-((1-methyl-1H-pyrazol-4-yl)amino)pyrimidin-4-yl)amino)-4-fluorophenyl)acrylamide]: the GI50 in test [1] is 2940 nM; in test [2], 2240 nM. Moreover, the IC50 in test [3] is 3580 nM.

Consider `[2H]C([2H])=CC(=O)Nc1ccc(F)c(Nc2nc(Nc3cnn(C)c3)ncc2-c2cnc(F)c(F)c2)c1` [Compound 103, N-(3-((5-(5,6-difluoropyridin-3-yl)-2-((1-methyl-1H-pyrazol-4-yl)amino)pyrimidin-4-yl)amino)-4-fluorophenyl)acrylamide-3,3-d2], for which the GI50 in test [1] is 25 nM; in test [2], 14 nM. In addition, in test [3], the IC50 is 20 nM.

Turning to `C=CC(=O)Nc1ccc(F)c(Nc2nc(Nc3cnn(C)c3)ncc2-c2cc(F)cc(OCC(F)(F)F)c2)c1` [Compound 176, N-(4-fluoro-3-((5-(3-fluoro-5-(2,2,2-trifluoroethoxy)phenyl)-2-((1-methyl-1H-pyrazol-4-yl)amino)pyrimidin-4-yl)amino)phenyl)acrylamide], the GI50 in test [1] was 1130 nM; in test [2] it was 859 nM; in test [4], more than 10000 nM.

For the compound `C=C(F)C(=O)Nc1ccc(F)c(Nc2nc(Nc3cnn(C)c3)ncc2-c2ccc(Br)c(F)c2)c1` [Compound 177, N-(3-((5-(4-bromo-3-fluorophenyl)-2-((1-methyl-1H-pyrazol-4-yl)amino)pyrimidin-4-yl)amino)-4-fluorophenyl)-2-fluoroacrylamide], the GI50 came to 939 nM in test [1] and 1730 nM in test [2]. The IC50 in test [3] turned out to be 326 nM.

Consider `CN(C)C/C=C/C(=O)Nc1ccc(F)c(Nc2nc(Nc3cnn(C)c3)ncc2-c2ccc3c(c2)OCC3)c1` [Compound 178, (E)-N-(3-((5-(2,3-dihydrobenzofuran-6-yl)-2-((1-methyl-1H-pyrazol-4-yl)amino)pyrimidin-4-yl)amino)-4-fluorophenyl)-4-(dimethylamino)but-2-enamide], for which the results for the GI50 in test [1] and in test [2] were 927 nM and 722 nM, respectively. In test [3], the 50% inhibitory concentration (IC50) worked out at 350 nM.
